Where two headings read alike, the source gives them in different places.
Assays:
HoblOBP3 = HoblOBP3 (Holotrichia oblita, UniProt G9BWQ7); assay: biochemical; assay type: binding
Protocol: (§1) N-phenyl-1-naphthylamine (1-NPN) was selected as a probe to measure the affinity of the 1-NPN fluorescent ligand to proteins. A 1-cm light path quartz cuvette was used, and the fluorescence spectra were recorded on a Lengguang 970 CRT spectrofluorimeter (Shanghai Jingmi, China) at room temperature in a right angle configuration. The parameter selection was such that the slit widths for both excitation and emission were 10 nm. 1-NPN was excited at 337 nm and the emission spectra were recorded between 350 and 550 nm. Spectra were recorded using high-speed scanning.
(§2) The 2 µM protein solution was dissolved in 50 mM Tris-HCl buffer with pH 7.4, and the ligands were dissolved in chromatographically pure methanol as a 1 mM stock solution. 1-NPN was dissolved in chromatographically pure methanol as a 1 mM stock solution.
(§3) To determine the dissociation constants, the intensity values corresponding to the maximum fluorescence emission were plotted against free ligand concentrations. Assuming that the protein was 100% active and that the stoichiometric ratio between the protein and ligand was 1:1 at saturation, the bound ligand was determined from the fluorescence intensity values. The curves were then linearized using Scatchard plots. The K1-NPN values were estimated using GraphPad Prism 5 Software by nonlinear regression for a unique binding site. The dissociation constants of the competitors (Ki) were calculated from the corresponding IC50 values using the following equation: Ki = [IC50]/1+[1-NPN]/K1-NPN. […] [1-NPN] represented the free concentration of 1-NPN, and K1-NPN represented the dissociation constant of the complex protein/1-NPN [76].

HoblOBP4 = HoblOBP4 (Holotrichia oblita, UniProt G9BWQ8); assay: biochemical; assay type: binding
Chain of HoblOBP4 (G9BWQ8 entry or part of it): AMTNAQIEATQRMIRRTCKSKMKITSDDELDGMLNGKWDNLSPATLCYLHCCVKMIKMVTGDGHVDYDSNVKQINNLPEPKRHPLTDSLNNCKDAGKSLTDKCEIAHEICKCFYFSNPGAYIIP
Protocol: as §1, §2, §3

[1] = HoblOBP3, dash = IC50 exceeded 50 µM, read-out: IC50 (dash)
[2] = HoblOBP3, dash = ligand whose IC50 exceeded 50 µM, Ki not given, read-out: Ki (dash)
[3] = pH 7.4, HoblOBP3, at the ligand concentration 24 µM, protein and 1-NPN both 2 µM, read-out: Int (fluorescence intensity as percent of the initial fluorescence)
[4] = HoblOBP4, dash = IC50 exceeded 50 µM, read-out: IC50 (dash)
[5] = HoblOBP4, dash = ligand whose IC50 exceeded 50 µM, Ki not given, read-out: Ki (dash)
[6] = pH 7.4, HoblOBP4, at the ligand concentration 24 µM, protein and 1-NPN both 2 µM, read-out: Int (fluorescence intensity as percent of the initial fluorescence)
[7] = HoblOBP4, calculated from IC50 and K1-NPN, read-out: Ki
[8] = HoblOBP4, protein and 1-NPN both 2 µM, ligand titrated 2–50 µM, read-out: IC50 (concentration of ligand halving the initial fluorescence intensity)
[9] = pH 7.4, read-out: Int (fluorescence intensity as percent of the initial fluorescence)

Chain of HoblOBP3 (G9BWQ7 entry or part of it): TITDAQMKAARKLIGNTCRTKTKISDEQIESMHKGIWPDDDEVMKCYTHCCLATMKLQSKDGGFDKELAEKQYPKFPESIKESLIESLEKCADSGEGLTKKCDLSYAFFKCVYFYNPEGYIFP

| SMILES | IC50 (HoblOBP3; [1]) | Ki (HoblOBP3; [2]) | activity at 24 µM (HoblOBP3; [3]) | IC50 (HoblOBP4; [4]) | Ki (HoblOBP4; [5]) | activity at 24 µM (HoblOBP4; [6]) | Ki (HoblOBP4; [7]) | IC50 (HoblOBP4; [8]) | Ki (HoblOBP3; HoblOBP3, calculated from IC50 and K1-NPN, read-out: Ki) | IC50 (HoblOBP3; HoblOBP3, protein and 1-NPN both 2 µM, ligand titrated 2–50 µM, read-out: IC50 (concentration of ligand halving the initial fluorescence intensity)) | activity at 24 µM (HoblOBP3; [9]) | activity at 24 µM (HoblOBP4; [9]) | IC50 (HoblOBP3) | Ki (HoblOBP3) | IC50 (HoblOBP4) | Ki (HoblOBP4) |
| --- | --- | --- | --- | --- | --- | --- | --- | --- | --- | --- | --- | --- | --- | --- | --- | --- |
| CCCCCCCO [1-Heptanol] | > 50 µM | > 50 µM | 70% | – | – | 46% | 15.4 µM | 21 µM | – | – | – | – | – | – | – | – |
| CCCCCC=O [1-Hexanal] | – | – | 68% | – | – | 42% | – | – | – | – | – | – | > 50 µM | > 50 µM | 15 µM | 11 µM |
| CCCCCCO [1-Hexanol] | > 50 µM | > 50 µM | 91% | – | – | 45% | 8.8 µM | 12 µM | – | – | – | – | – | – | – | – |
| CCCCCCCCCO [1-Nonanol] | > 50 µM | > 50 µM | 71% | – | – | 46% | 11.8 µM | 16 µM | – | – | – | – | – | – | – | – |
| C=CC(O)CCCCC (stereo not shown) [1-Octen-3-ol] | > 50 µM | > 50 µM | 86% | – | – | 54% | 29.4 µM | 40 µM | – | – | – | – | – | – | – | – |
| O=Cc1ccccc1 [Benzaldehyde] | – | – | – | – | – | – | – | – | – | – | 68% | 44% | > 50 µM | > 50 µM | 17 µM | 12.5 µM |
| O=CCc1ccccc1 [Benzeneacetaldehyde] | > 50 µM | > 50 µM | – | > 50 µM | > 50 µM | – | – | – | – | – | – | – | – | – | – | – |
| CCCCCCCCCC [Decane] | > 50 µM | > 50 µM | – | > 50 µM | > 50 µM | – | – | – | – | – | – | – | – | – | – | – |
| CC(C)=CCC/C(C)=C/CO [Geraniol] | – | – | – | – | – | – | – | – | – | – | 79% | 44% | > 50 µM | > 50 µM | 16 µM | 11.8 µM |

Further lines, with some results ahead:

| IC50 (HoblOBP3; [1]) | Ki (HoblOBP3; [2]) | activity at 24 µM (HoblOBP3; [3]) | IC50 (HoblOBP4; [4]) | Ki (HoblOBP4; [5]) | activity at 24 µM (HoblOBP4; [6]) | Ki (HoblOBP4; [7]) | IC50 (HoblOBP4; [8]) | Ki (HoblOBP3; HoblOBP3, calculated from IC50 and K1-NPN, read-out: Ki) | IC50 (HoblOBP3; HoblOBP3, protein and 1-NPN both 2 µM, ligand titrated 2–50 µM, read-out: IC50 (concentration of ligand halving the initial fluorescence intensity)) | activity at 24 µM (HoblOBP3; [9]) | activity at 24 µM (HoblOBP4; [9]) | SMILES | IC50 (HoblOBP3) | Ki (HoblOBP3) | IC50 (HoblOBP4) | Ki (HoblOBP4) |
| --- | --- | --- | --- | --- | --- | --- | --- | --- | --- | --- | --- | --- | --- | --- | --- | --- |
| > 50 µM | > 50 µM | 86% | > 50 µM | > 50 µM | 68% | – | – | – | – | – | – | CCCCCCCCCC=O [1-Decanal] | – | – | – | – |
| – | – | 65% | – | – | 44% | 11.8 µM | 16 µM | 26.8 µM | 41 µM | – | – | CCCCC=O [1-Pentanal] | – | – | – | – |
| > 50 µM | > 50 µM | 70% | – | – | 49% | 16.9 µM | 23 µM | – | – | – | – | O=C1C=CCCC1 [2-Cyclohexen-1-one] | – | – | – | – |
| > 50 µM | > 50 µM | 68% | – | – | 49% | 14 µM | 19 µM | – | – | – | – | CC(C)(C)C1CCC(O)CC1 (stereo not shown) [4-tert-Butyl cyclohexanol] | – | – | – | – |
| – | – | – | – | – | – | – | – | – | – | 78% | 52% | CC(=O)CCC=C(C)C [6-Methyl-5-hepten-2-one] | > 50 µM | > 50 µM | 32 µM | 23.5 µM |
| > 50 µM | > 50 µM | 78% | – | – | 56% | 29.4 µM | 40 µM | – | – | – | – | CC/C=C\CCOC(C)=O [(Z)-3-Hexenyl acetate] | – | – | – | – |
| > 50 µM | > 50 µM | 69% | – | – | 40% | 8.1 µM | 11 µM | – | – | – | – | CCCCOC(=O)c1ccccc1 [Butyl Benzoate] | – | – | – | – |
| > 50 µM | > 50 µM | 76% | – | – | 50% | – | 24 µM | – | – | – | – | CCOC(=O)CN [Glycine ethyl ester] | – | – | – | – |

Reference: paper PMC3871601, “Potential Cooperations between Odorant-Binding Proteins of the Scarab Beetle Holotrichia oblita Faldermann (Coleoptera: Scarabaeidae)” (PLoS ONE, 2013)
